From patent US9120749B2, “Quinoline derivatives and MELK inhibitors containing the same” (ONCOTHERAPY SCIENCE, INC., priority 2010, dated 2015)
Counter-ions that a name gives are not always drawn. Like-named read-outs stand apart in the source and are kept apart here.

Key:
[1] = biological target: MELK (Homo sapiens, UniProt Q14680); test: Kinase assay: MELK activity, phosphorylation of FITC-labeled histone H3 peptide measured by IMAP fluorescence polarization; type: biochemical; conditions: read-out: IC50 (μM) (kinase assay)
Sequence of MELK (Q14680 whole entry, looked up): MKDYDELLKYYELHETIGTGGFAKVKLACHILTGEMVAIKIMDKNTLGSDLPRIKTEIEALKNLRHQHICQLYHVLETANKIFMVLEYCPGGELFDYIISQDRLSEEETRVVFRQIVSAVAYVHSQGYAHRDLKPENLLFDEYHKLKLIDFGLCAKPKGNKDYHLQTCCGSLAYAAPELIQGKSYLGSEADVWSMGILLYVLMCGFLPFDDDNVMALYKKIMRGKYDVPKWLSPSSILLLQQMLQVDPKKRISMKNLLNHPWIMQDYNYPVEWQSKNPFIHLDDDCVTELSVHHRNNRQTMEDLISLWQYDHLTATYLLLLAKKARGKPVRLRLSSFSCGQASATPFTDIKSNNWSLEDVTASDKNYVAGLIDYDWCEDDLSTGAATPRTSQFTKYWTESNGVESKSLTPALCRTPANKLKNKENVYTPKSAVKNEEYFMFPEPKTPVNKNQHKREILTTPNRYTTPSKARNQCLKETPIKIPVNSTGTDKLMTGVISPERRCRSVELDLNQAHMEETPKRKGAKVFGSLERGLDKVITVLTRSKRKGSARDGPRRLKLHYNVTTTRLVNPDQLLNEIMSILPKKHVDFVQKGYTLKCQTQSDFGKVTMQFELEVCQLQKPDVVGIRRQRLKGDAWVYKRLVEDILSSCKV
Method in brief: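 FP readout: FITC-histone H3 peptide phosphorylation, read 0.5 h (RT) after stopping with 3x volume of IMAP progressive binding solution. Final DMSO 1%.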

[2] = test system: T47D cells; test: Cell-based assay: anti-proliferative activity, Cell Counting Kit-8, 72 hours (T47D); conditions: 72 hours
Method in brief: (§1)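 Cellular growth is read by CCK-8 colorimetric kit 72 h after inhibitor addition to seeded cells, and IC50 values are derived from the resulting data; MELK protein levels in these lines are checked beforehand by immunoblotting whole crude lysate.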

[3] = test system: A549 cells; test: Cell-based assay: anti-proliferative activity, Cell Counting Kit-8, 72 hours (A549); conditions: 72 hours
Method in brief: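 Cell Counting Kit-8 read-out of A549 growth after 72 hours of inhibitor exposure, cells plated in 96-well format. Values reported as IC50.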

[4] = test system: HT-1197 cells; test: Cell-based assay: anti-proliferative activity, Cell Counting Kit-8, 72 hours (HT-1197, negative control without MELK expression); conditions: HT1197 cells (negative control, no MELK expression), 72 hours
Method in brief: as §1

[5] = test system: 22Rv1 cells; test: Cell-based assay: anti-proliferative activity, Cell Counting Kit-8, 72 hours (22Rv1); conditions: Homo sapiens
[6] = test system: DU4475 cells; test: Cell-based assay: anti-proliferative activity, Cell Counting Kit-8, 72 hours (DU4475)

| Structure (SMILES) | IC50 ([1]; dihydrochloride) [µM] | IC50 ([2]; dihydrochloride) [µM] | IC50 ([3]; dihydrochloride) [µM] | IC50 ([4]; dihydrochloride) [µM] | IC50 [5] [µM] | IC50 ([6]; dihydrochloride) [µM] | IC50 [1] [µM] | IC50 [2] [µM] | IC50 [3] [µM] | IC50 [4] [µM] | IC50 [6] [µM] | IC50 ([1]; hydrochloride) [µM] | IC50 ([2]; hydrochloride) [µM] | IC50 ([3]; hydrochloride) [µM] | IC50 ([4]; hydrochloride) [µM] | IC50 ([6]; hydrochloride) [µM] |
| --- | --- | --- | --- | --- | --- | --- | --- | --- | --- | --- | --- | --- | --- | --- | --- | --- |
| CCC(=O)c1cnc2ccc(-c3cc(Cl)c(O)c(Cl)c3)cc2c1N[C@H]1CC[C@H](CN(C)C)CC1 [Example 716, 1-(6-(3,5-dichloro-4-hydroxyphenyl)-4-((trans-4-((dimethylamino)methyl)cyclohexyl)amino)quinolin-3-yl)propan-1-one dihydrochloride] | 0.0016 | 0.14 | 0.12 | 0.82 | 0.14 | 0.055 | – | – | – | – | – | – | – | – | – | – |
| CC(=O)c1cnc2ccc(-c3cc(F)c(O)c(Cl)c3)cc2c1N[C@H]1CC[C@H](CCN(C)C)CC1 [Example 742, 1-(6-(3-chloro-5-fluoro-4-hydroxyphenyl)-4-(1R,4R)-4-(2-(dimethylamino)ethyl)cyclohexylamino)quinolin-3-yl)ethanone dihydrochloride] | 0.0044 | 0.034 | 0.078 | 1.7 | 0.094 | 0.063 | – | – | – | – | – | – | – | – | – | – |
| CC(=O)c1cnc2ccc(-c3cc(F)c(O)c(Cl)c3)cc2c1Nc1ccc(N2CCCC(N)C2)nc1 (stereo not drawn) [Example 733, 1-(4-(6-(3-aminopiperidin-1-yl)pyridin-3-ylamino)-6-(3-chloro-5-fluoro-4-hydroxyphenyl)quinolin-3-yl)ethanone] | – | – | – | – | 0.0064 | – | 0.00099 | 0.0035 | 0.0086 | 0.064 | 0.01 | – | – | – | – | – |
| N[C@H]1CCCN(c2ccc(Nc3c(C(=O)C4CC4)cnc4ccc(-c5cc(Cl)c(O)c(Cl)c5)cc34)cn2)C1 [Example 647, (S)-(4-(6-(3-aminopiperidin-1-yl)pyridin-3-ylamino)-6-(3,5-dichloro-4-hydroxyphenyl)quinolin-3-yl)(cyclopropyl)methanone hydrochloride] | – | – | – | – | 0.03 | – | – | – | – | – | – | 0.0015 | 0.03 | 0.08 | 0.75 | 0.015 |
